pEC50, pKi: −log10 of the molar value.
How the values were obtained:
[1] = target: T1, Neuronal acetylcholine receptor; alpha4/beta2 (Homo sapiens, UniProt P17787+P43681); test: Binding affinity to alpha4beta2 nAChR; format: protein-complex assay
[2] = target: T1, Neuronal acetylcholine receptor; alpha4/beta2; test: Displacement of [3H]nicotine from alpha4beta2 nAChR in human SH-EP1 cells after 2 hrs by liquid scintillation assay; format: cell-based
[3] = target: T2, Neuronal acetylcholine receptor; alpha3/beta4 (Homo sapiens, UniProt P30926+P32297); test: Agonist activity at human alpha3beta4 nAChR expressed in CHO cells assessed as calcium flux by calcium4-based FLIPR assay; format: functional, cell-based
T2 sequence (P30926 whole entry): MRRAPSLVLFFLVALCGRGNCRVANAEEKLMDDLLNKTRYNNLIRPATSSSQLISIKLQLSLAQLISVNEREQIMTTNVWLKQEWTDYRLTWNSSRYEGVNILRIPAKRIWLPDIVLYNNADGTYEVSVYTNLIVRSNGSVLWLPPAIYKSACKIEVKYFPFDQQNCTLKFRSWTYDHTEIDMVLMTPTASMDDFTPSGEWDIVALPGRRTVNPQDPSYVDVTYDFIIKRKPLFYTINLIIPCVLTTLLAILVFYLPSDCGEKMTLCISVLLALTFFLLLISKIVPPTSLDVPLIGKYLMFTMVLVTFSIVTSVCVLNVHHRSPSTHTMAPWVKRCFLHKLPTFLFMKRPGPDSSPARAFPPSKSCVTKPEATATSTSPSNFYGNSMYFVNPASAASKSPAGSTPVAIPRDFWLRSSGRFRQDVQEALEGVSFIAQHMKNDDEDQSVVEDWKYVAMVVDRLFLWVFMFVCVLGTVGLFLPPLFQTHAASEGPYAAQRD
T2 sequence (P32297 whole entry): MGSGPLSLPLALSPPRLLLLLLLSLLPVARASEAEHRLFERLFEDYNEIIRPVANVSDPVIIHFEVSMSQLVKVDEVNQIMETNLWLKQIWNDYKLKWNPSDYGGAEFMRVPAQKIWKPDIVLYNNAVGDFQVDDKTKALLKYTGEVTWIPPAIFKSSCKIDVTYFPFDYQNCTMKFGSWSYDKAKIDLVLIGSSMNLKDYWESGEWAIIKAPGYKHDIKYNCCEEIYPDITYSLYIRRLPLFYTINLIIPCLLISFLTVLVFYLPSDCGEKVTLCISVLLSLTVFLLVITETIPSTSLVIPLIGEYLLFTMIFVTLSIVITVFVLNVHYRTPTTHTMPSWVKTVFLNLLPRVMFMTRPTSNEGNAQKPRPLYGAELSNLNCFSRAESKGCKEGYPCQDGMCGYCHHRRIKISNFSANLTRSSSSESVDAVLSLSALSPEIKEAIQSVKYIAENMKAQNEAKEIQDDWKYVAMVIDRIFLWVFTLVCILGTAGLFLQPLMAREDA

[4] = target: T1, Neuronal acetylcholine receptor; alpha4/beta2; test: Partial agonist activity at alpha4beta2 nAChR in human SH-EP1 cells assessed as calcium flux by calcium4-based FLIPR assay relative to nicotine; format: functional, cell-based
[5] = target: Neuronal acetylcholine receptor subunit alpha-7 (Homo sapiens, UniProt P36544); test: Displacement of [3H]epibatidine from human alpha7 nAChR expressed in CHO cells after 2 hrs by liquid scintillation counting; format: cell-based
Chain of Neuronal acetylcholine receptor subunit alpha-7 (P36544 whole entry): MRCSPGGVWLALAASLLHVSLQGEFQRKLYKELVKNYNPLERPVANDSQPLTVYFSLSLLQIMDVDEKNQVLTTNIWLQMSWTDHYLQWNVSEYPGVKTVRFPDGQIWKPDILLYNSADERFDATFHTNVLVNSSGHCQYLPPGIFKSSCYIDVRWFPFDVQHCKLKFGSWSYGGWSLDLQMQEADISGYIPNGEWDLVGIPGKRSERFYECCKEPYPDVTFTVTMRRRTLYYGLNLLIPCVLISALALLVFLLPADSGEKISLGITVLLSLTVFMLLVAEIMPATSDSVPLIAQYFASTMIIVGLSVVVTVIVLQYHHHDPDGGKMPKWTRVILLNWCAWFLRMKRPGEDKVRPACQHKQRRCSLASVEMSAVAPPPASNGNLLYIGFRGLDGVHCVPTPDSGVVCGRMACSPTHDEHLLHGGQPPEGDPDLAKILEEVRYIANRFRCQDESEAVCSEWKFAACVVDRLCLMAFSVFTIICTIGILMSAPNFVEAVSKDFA

[6] = target: T2, Neuronal acetylcholine receptor; alpha3/beta4; test: Displacement of [3H]epibatidine from human alpha3beta4 nAChR expressed in CHO cells after 2 hrs by liquid scintillation counting; format: cell-based
[7] = target: T1, Neuronal acetylcholine receptor; alpha4/beta2; test: Partial agonist activity at alpha4beta2 nAChR in human SH-EP1 cells assessed as calcium flux by calcium4-based FLIPR assay; format: functional, cell-based
[8] = target: T2, Neuronal acetylcholine receptor; alpha3/beta4; test: Agonist activity at human alpha3beta4 nAChR expressed in CHO cells assessed as calcium flux by calcium4-based FLIPR assay relative to nicotine; format: functional, cell-based
[9] = target: Neuronal acetylcholine receptor; alpha4/beta2 (Rattus norvegicus, UniProt P09483+P12390); test: Displacement of [3H]epibatidine from alpha4beta2 nAChR in Sprague-Dawley rat cortex after 2 hrs by liquid scintillation counting
Chain of Neuronal acetylcholine receptor; alpha4/beta2 (Rattus norvegicus, UniProt P09483+P12390) (P09483 whole entry): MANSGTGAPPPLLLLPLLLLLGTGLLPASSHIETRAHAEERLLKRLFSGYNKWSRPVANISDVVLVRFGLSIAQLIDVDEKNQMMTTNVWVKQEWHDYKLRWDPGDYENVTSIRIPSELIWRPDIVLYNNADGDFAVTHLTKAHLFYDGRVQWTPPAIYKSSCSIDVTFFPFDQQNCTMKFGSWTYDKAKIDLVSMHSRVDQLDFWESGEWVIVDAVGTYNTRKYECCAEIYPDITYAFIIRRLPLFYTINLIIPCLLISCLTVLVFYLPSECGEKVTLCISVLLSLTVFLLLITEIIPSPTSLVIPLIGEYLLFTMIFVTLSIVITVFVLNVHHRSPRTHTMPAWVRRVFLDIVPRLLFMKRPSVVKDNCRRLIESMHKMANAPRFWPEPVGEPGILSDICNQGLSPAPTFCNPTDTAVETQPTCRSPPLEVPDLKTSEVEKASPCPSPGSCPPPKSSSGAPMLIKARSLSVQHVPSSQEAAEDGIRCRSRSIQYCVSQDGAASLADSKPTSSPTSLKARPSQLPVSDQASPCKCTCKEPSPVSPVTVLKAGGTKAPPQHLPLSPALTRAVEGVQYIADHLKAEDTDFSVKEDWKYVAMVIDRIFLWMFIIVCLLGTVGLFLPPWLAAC
Chain of Neuronal acetylcholine receptor; alpha4/beta2 (Rattus norvegicus, UniProt P09483+P12390) (P12390 whole entry): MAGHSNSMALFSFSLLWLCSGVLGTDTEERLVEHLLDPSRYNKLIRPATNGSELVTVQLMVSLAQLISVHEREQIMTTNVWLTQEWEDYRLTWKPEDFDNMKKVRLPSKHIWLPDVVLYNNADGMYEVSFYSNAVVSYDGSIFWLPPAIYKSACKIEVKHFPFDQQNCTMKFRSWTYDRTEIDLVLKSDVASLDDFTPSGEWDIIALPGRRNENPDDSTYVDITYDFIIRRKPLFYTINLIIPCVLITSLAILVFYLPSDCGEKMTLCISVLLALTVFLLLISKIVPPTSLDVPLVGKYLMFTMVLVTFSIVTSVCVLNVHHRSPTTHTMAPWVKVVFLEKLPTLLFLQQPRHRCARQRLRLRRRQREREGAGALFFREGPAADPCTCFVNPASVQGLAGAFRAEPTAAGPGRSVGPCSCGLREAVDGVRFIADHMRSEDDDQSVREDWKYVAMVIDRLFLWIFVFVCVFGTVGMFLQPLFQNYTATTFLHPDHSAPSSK

[10] = target: T1, Neuronal acetylcholine receptor; alpha4/beta2; test: Agonist activity at alpha4beta2 nAChR in human SH-EP1 cells assessed as calcium flux by calcium4-based FLIPR assay; format: functional, cell-based
[11] = target: T1, Neuronal acetylcholine receptor; alpha4/beta2; test: Agonist activity at alpha4beta2 nAChR in human SH-EP1 cells assessed as calcium flux by calcium4-based FLIPR assay relative to nicotine; format: functional, cell-based

T1 sequence (P17787 whole entry): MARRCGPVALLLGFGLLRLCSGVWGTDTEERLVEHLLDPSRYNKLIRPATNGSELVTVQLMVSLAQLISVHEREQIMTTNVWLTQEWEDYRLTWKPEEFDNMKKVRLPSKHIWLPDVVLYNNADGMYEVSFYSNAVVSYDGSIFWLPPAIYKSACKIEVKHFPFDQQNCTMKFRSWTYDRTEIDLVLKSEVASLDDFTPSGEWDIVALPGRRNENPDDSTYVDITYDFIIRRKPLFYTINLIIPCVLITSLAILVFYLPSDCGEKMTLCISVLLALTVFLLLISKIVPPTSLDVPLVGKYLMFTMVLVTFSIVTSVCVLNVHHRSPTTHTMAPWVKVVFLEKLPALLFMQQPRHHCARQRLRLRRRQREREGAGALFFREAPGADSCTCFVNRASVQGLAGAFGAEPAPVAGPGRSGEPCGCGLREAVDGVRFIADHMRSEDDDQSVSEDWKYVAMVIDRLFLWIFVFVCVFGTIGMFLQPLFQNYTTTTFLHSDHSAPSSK
T1 sequence (P43681 whole entry): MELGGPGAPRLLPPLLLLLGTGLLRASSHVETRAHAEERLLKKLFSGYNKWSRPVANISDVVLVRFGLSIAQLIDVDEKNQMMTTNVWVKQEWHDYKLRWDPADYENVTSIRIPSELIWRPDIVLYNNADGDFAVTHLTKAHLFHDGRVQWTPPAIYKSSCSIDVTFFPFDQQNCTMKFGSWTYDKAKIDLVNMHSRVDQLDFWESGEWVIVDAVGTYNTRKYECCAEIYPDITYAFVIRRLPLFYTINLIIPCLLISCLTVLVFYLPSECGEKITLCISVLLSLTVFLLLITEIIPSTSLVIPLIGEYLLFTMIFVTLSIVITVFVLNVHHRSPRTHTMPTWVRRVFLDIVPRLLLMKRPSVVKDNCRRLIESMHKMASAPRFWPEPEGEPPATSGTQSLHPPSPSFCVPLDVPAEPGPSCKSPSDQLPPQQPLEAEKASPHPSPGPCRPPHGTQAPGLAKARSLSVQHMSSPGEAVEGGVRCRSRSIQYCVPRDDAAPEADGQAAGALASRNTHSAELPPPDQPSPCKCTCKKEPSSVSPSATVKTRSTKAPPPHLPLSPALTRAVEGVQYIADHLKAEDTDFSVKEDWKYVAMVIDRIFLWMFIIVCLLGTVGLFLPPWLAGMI

CN[C@@H](C)C/C=C/c1cccnc1
pKi [1]: 7.62

N#Cc1coc(C(=O)N2CC3CNCC(C3)C2)c1
pKi [2]: 7.48
pEC50 [3]: 4.46
Emax [4]: 20%
pKi [5]: < 5.00
pKi [6]: < 5.00
pEC50 [7]: 3.96
Emax [8]: 19%

Cc1ccoc1C(=O)N1CC2CNCC(C2)C1
pKi [2]: 6.72
pEC50 [3]: 4.60
Emax [4]: 9%
pKi [5]: < 5.00
pKi [6]: < 5.00
pEC50 [7]: 4.60
pKi [9]: 6.19
Emax [8]: 11%

O=C(c1cc(Br)co1)N1CC2CNCC(C2)C1
pKi [2]: 8.52
pEC50 [3]: 4.30
Emax [4]: 34%
pKi [5]: < 5.00
pKi [6]: 5.03
pEC50 [7]: 4.74
pKi [9]: 7.24
Emax [8]: 13%

O=C(c1ccc(F)o1)N1CC2CNCC2C1 (stereo unspecified)
pKi [2]: 8.10
pEC50 [3]: 4.51
pEC50 [10]: 5.24
pKi [5]: 5.92
pKi [6]: 4.92
pKi [9]: 7.29
Emax [8]: 55%
Emax [11]: 140%

O=C(c1ccc(Br)o1)N1CC2CNCC2C1 (stereo unspecified)
pKi [2]: 7.13
pEC50 [3]: 4.54
pEC50 [10]: 4.66
pKi [5]: < 5.00
pKi [6]: 5.14
pKi [9]: 6.62
Emax [8]: 25%
Emax [11]: 40%

O=C(C1CC1)N1CC2CNCC2C1 (stereo unspecified)
pKi [2]: 8.40
pEC50 [3]: 5.31
pEC50 [10]: 6.33
pKi [5]: 6.08
pKi [6]: 6.17
pKi [9]: 8.15
Emax [8]: 130%
Emax [11]: 110%

N#Cc1ccc(C(=O)N2CC3CNCC(C3)C2)o1
pKi [2]: 8.10
pEC50 [3]: 4.47
Emax [4]: 58%
pKi [5]: < 5.00
pKi [6]: 4.68
pEC50 [7]: 5.15
pKi [9]: 7.11
Emax [8]: 64%

O=C(c1ncco1)N1CC2CNCC2C1 (stereo unspecified)
pKi [2]: 6.47
pEC50 [3]: 4.10
pEC50 [10]: 4.51
pKi [5]: 4.85
pKi [6]: 4.00
pKi [9]: 6.33
Emax [8]: 5%
Emax [11]: 65%

O=C(c1cc(Br)co1)N1CC2CNCC2C1 (stereo unspecified)
pKi [2]: 7.80
pEC50 [3]: 4.44
pEC50 [10]: 5.19
pKi [5]: 5.34
pKi [6]: 5.11
pKi [9]: 7.04
Emax [8]: 45%
Emax [11]: 15%

O=C(c1cc(Cl)co1)N1CC2CNCC(C2)C1
pKi [2]: 8.30
pEC50 [3]: 4.27
Emax [4]: 11%
pKi [5]: < 5.00
pKi [6]: 5.18
pEC50 [7]: 4.00
pKi [9]: 7.40
Emax [8]: 27%

O=C(c1cc(F)co1)N1CC2CNCC(C2)C1
pKi [2]: 7.66
pEC50 [3]: 4.66
Emax [4]: 66%
pKi [5]: < 5.00
pKi [6]: 5.49
pEC50 [7]: 6.10
Emax [8]: 93%

CCC(=O)C1=CCCN(C)C1 [ARECOLON]
pKi [1]: 8.24

O=C(c1ccc(F)o1)N1C[C@H]2CN[C@@H](C2)C1
pKi [2]: 7.92
pEC50 [3]: 5.40
pEC50 [10]: 5.77
pKi [5]: 5.80
pKi [6]: 6.22
pKi [9]: 6.92
Emax [8]: 120%
Emax [11]: 120%

O=C(C1CC1)N1C[C@H]2CN[C@@H](C2)C1
pKi [2]: 8.15
pEC50 [3]: 5.85
pEC50 [10]: 5.77
pKi [5]: 7.40
pKi [6]: 6.96
pKi [9]: 8.00
Emax [8]: 140%
Emax [11]: 100%

Cc1ccc(C(=O)N2CC3CNCC(C3)C2)o1
pKi [2]: 7.34
pEC50 [3]: 4.43
Emax [4]: 19%
pKi [5]: < 5.00
pKi [6]: < 5.00
pEC50 [7]: 5.07
pKi [9]: 6.62
Emax [8]: 11%

O=C(c1cccnc1)N1CC2CNCC2C1 (stereo unspecified)
pKi [2]: 6.31
pEC50 [3]: 4.54
pEC50 [10]: 4.52
pKi [5]: 4.70
pKi [6]: 5.36
pKi [9]: 6.80
Emax [8]: 55%
Emax [11]: 58%

O=C(c1occc1Cl)N1CC2CNCC2C1 (stereo unspecified)
pKi [2]: 8.70
pEC50 [3]: 4.66
pEC50 [10]: 4.77
pKi [5]: 5.59
pKi [6]: 5.62
pKi [9]: 7.92
Emax [8]: 110%
Emax [11]: 79%

N#Cc1ccoc1C(=O)N1CC2CNCC(C2)C1
pKi [2]: 7.41
pEC50 [3]: 4.68
Emax [4]: 8%
pKi [5]: < 5.00
pKi [6]: < 5.00
pEC50 [7]: 4.59
pKi [9]: 6.55
Emax [8]: 16%

O=C(C1CC1)N1CC2CNC(C2)C1 (stereo unspecified)
pKi [2]: 8.40
pEC50 [3]: 5.38
pEC50 [10]: 5.77
pKi [5]: 6.46
pKi [6]: 6.38
pKi [9]: 9.00
Emax [8]: 150%
Emax [11]: 100%

N#Cc1coc(C(=O)N2CC3CNCC3C2)c1 (stereo unspecified)
pKi [2]: 7.57
pEC50 [3]: 4.51
pEC50 [10]: 4.96
pKi [5]: 5.07
pKi [6]: 5.06
pKi [9]: 6.92
Emax [8]: 21%
Emax [11]: 22%

O=C(c1ccco1)N1C[C@@H]2CN[C@H](C2)C1
pKi [2]: 7.89
pEC50 [3]: 4.82
pEC50 [10]: 5.13
pKi [5]: 5.26
pKi [6]: 6.35
pKi [9]: 7.96
Emax [8]: 130%
Emax [11]: 36%

C1=C(c2cccnc2)C2CCC(CC1)N2 (stereo unspecified)
pKi [1]: 9.57

O=C(c1ccc(Br)o1)N1CC2CNCC(C2)C1
pKi [2]: 7.59
pEC50 [3]: 4.52
Emax [4]: 23%
pKi [5]: < 5.00
pKi [6]: 5.19
pEC50 [7]: 5.08
pKi [9]: 7.00
Emax [8]: 28%

Cc1ccc(C(=O)N2CC3CNCC3C2)o1 (stereo unspecified)
pKi [2]: 7.38
pEC50 [3]: 4.24
pEC50 [10]: 4.66
pKi [5]: 5.09
pKi [6]: < 5.00
pKi [9]: 6.64
Emax [8]: 7%
Emax [11]: 44%

O=C(c1ccccc1)N1CC2CNCC2C1 (stereo unspecified)
pKi [2]: 6.70
pEC50 [3]: 4.55
pEC50 [10]: 4.44
pKi [5]: 4.70
pKi [6]: 4.82
pKi [9]: 8.96
Emax [8]: 18%
Emax [11]: 9%

O=C(c1occc1Cl)N1CC2CNCC(C2)C1
pKi [2]: 7.82
pEC50 [3]: 4.55
Emax [4]: 3%
pKi [5]: < 5.00
pKi [6]: 5.06
pEC50 [7]: 4.12
pKi [9]: 6.92
Emax [8]: 26%

Cc1ncoc1C(=O)N1CC2CNCC2C1 (stereo unspecified)
pKi [2]: 8.10
pEC50 [3]: 4.48
pEC50 [10]: 5.17
pKi [5]: 5.23
pKi [6]: 4.66
pKi [9]: 7.22
Emax [8]: 51%
Emax [11]: 110%

CN1CCC=C(c2ccc(Cl)nc2)C1
pKi [1]: 8.66

O=C(c1occc1F)N1CC2CNCC(C2)C1
pKi [2]: 7.30
pEC50 [3]: 4.49
Emax [4]: 15%
pKi [5]: < 5.00
pKi [6]: < 5.00
pEC50 [7]: 4.66
pKi [9]: 6.68
Emax [8]: 54%

N#Cc1ccoc1C(=O)N1CC2CNCC2C1 (stereo unspecified)
pKi [2]: 7.89
pEC50 [3]: 4.66
pEC50 [10]: 4.00
pKi [5]: 5.06
pKi [6]: 5.49
pKi [9]: 7.17
Emax [8]: 96%
Emax [11]: 76%

COc1ccc(C(=O)N2CC3CNCC3C2)cc1 (stereo unspecified)
pKi [2]: 7.59
pEC50 [3]: 4.51
pEC50 [10]: 4.37
pKi [5]: 4.00
pKi [6]: 5.08
pKi [9]: 6.85
Emax [8]: 22%
Emax [11]: 9%

Cc1ccoc1C(=O)N1CC2CNCC2C1 (stereo unspecified)
pKi [2]: 7.49
pEC50 [3]: 4.64
pEC50 [10]: 4.85
pKi [5]: 5.43
pKi [6]: 5.66
pKi [9]: 7.66
Emax [8]: 40%
Emax [11]: 64%

O=C(c1ccco1)N1CC2CNCC(C2)C1
pKi [2]: 7.70
pEC50 [3]: 4.37
pEC50 [10]: 5.72
pKi [5]: 5.09
pKi [6]: 5.09
pKi [9]: 7.54
Emax [8]: 57%
Emax [11]: 65%

O=C(c1ccccn1)N1CC2CNCC2C1 (stereo unspecified)
pKi [2]: 6.60
pEC50 [3]: 4.29
pEC50 [10]: 4.47
pKi [5]: 4.00
pKi [6]: 4.68
pKi [9]: 6.47
Emax [8]: 3%
Emax [11]: 44%

O=C(c1ccc(F)o1)N1CC2CNCC(C2)C1
pKi [2]: 8.52
pEC50 [3]: 5.04
Emax [4]: 73%
pKi [5]: 5.33
pKi [6]: 5.96
pEC50 [7]: 6.52
pKi [9]: 7.82
Emax [8]: 110%

O=C(c1occc1Br)N1CC2CNCC(C2)C1
pKi [2]: 7.64
pEC50 [3]: 4.62
Emax [4]: 8%
pKi [5]: < 5.00
pKi [6]: 5.19
pEC50 [7]: 5.07
pKi [9]: 6.89
Emax [8]: 20%

O=C(C1CC1)N1C[C@@H]2CN[C@H](C2)C1
pKi [2]: 9.00
pEC50 [3]: 5.74
pEC50 [10]: 6.35
pKi [5]: 6.68
pKi [6]: 6.70
pKi [9]: 7.66
Emax [8]: 180%
Emax [11]: 130%

O=C(c1occc1F)N1CC2CNCC2C1 (stereo unspecified)
pKi [2]: 7.64
pEC50 [3]: 4.36
pEC50 [10]: 5.32
pKi [5]: < 5.00
pKi [6]: 5.19
pKi [9]: 7.27
Emax [8]: 35%
Emax [11]: 96%

O=C(c1ccncc1)N1CC2CNCC2C1 (stereo unspecified)
pKi [2]: 7.17
pEC50 [3]: 4.49
pEC50 [10]: 4.68
pKi [5]: 4.82
pKi [6]: 5.27
pKi [9]: 7.70
Emax [8]: 33%
Emax [11]: 56%

COc1ccc(C(=O)N2CC3CNCC(C3)C2)cc1
pKi [2]: 7.22
pEC50 [3]: 4.55
pEC50 [10]: 5.37
pKi [5]: 4.00
pKi [6]: 4.57
pKi [9]: 6.42
Emax [8]: 7%
Emax [11]: 6%

O=C(c1ccc(Cl)o1)N1C[C@H]2CN[C@@H](C2)C1
pKi [2]: 7.80
pEC50 [3]: 4.85
pEC50 [10]: 5.52
pKi [5]: 4.85
pKi [6]: 5.28
pKi [9]: 6.92
Emax [8]: 100%
Emax [11]: 92%
